Experimental data published in BindingDB's records for doi:10.1158/1535-7163.MCT-05-0442 (Celera Genomics, 2006).
pKi: −log10 of the molar value.

These compounds were tested against Histone deacetylase 1 (Homo sapiens, UniProt Q13547) (assay: HDAC Inhibition Assay). Conditions: pH 7.4; 22 °C.
Protocol: HDAC activity was measured using a continuous trypsin-coupled assay. For inhibitor characterization, measurements were done using 96-well assay plates. Enzyme was mixed with inhibitor at various concentrations and allowed to incubate for 15 minutes. […] Reactions were monitored in a fluorescence plate reader. […] The increase in fluorescence with time was used as the measure of the reaction rate. Inhibition constants Ki(app) were obtained using the program BatchKi.

Chain of Histone deacetylase 1 (Q13547 whole entry): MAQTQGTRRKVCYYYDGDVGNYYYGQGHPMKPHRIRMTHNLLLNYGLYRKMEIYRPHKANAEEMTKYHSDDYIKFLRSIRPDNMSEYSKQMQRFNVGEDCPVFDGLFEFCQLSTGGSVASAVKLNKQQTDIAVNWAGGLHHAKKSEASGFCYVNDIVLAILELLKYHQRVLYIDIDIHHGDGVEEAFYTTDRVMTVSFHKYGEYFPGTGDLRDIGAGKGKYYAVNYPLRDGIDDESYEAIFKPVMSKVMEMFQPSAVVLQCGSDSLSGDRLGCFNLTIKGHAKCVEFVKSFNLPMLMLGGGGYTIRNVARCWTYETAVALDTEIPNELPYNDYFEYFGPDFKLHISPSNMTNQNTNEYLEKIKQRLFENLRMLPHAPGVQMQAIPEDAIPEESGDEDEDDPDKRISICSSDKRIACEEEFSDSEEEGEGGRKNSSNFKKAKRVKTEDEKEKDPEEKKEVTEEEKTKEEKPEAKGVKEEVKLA

Point of comparison: `O=C(NO)c1ccc(OCCNC(=O)c2cc3ccccc3o2)cc1` [N-{2-[4-(hydroxycarbamoyl)phenoxy]ethyl}-1-benzofuran-2-carboxamide], pKi 8.40. Against it:
- CN(C)Cc1c(C(=O)NCCOc2ccc(C(=O)O)cc2)oc2ccccc12 [4-[2-({3-[(dimethylamino)methyl]-1-benzofuran-2-yl}formamido)ethoxy]benzoic acid] — lower, < 4.30
- O=C(NO)c1ccc(OCCNC(=O)c2ccccc2)cc1 [N-hydroxy-4-[2-(phenylformamido)ethoxy]benzamide] — 1.03 log units lower, 7.37
- O=C(NO)c1ccc(OCCNC(=O)c2ccc3ccccc3c2)cc1 [N-{2-[4-(hydroxycarbamoyl)phenoxy]ethyl}naphthalene-2-carboxamide] — within 0.2 log units, 8.22
